# Test results reported in PubChem BioAssay AID330 (DTP/NCI, 2004).
# “And” between values parts separate entries of the source, which are not always exact repeats. Equal entries are not always repeated. Inconclusive results and toxic doses are left out.
# Test system: P388 leukemia ip, CD2F1 mice, survival T/C
# Test: NCI In Vivo Anticancer Drug Screen. Data for tumor model P388 Leukemia (intraperitoneal) in CD2F1 (CDF1) mice
# Details: endpoint: median survival time, higher = longer survival
# How it was run: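 Mice carrying the transplanted tumor received test compound or vehicle. Survival was recorded in each group, and the value is the treated-group measurement divided by that of the vehicle-treated control group.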
# [1] = dose: 50.0 mg/kg/injection, schedule: Q01DX005 (ip), vehicle: saline with Tween-80
# [2] = dose: 100.0 mg/kg/injection, schedule: Q01DX005 (ip), vehicle: saline with Tween-80
# [3] = dose: 50.0 mg/kg/injection, schedule: Q01DX005 (ip), vehicle: Klucel (hydroxypropylcellulose) (HPC)
# [4] = dose: 100.0 mg/kg/injection, schedule: Q01DX005 (ip), vehicle: Klucel (hydroxypropylcellulose) (HPC)
# [5] = dose: 200.0 mg/kg/injection, schedule: Q01DX005 (ip), vehicle: Klucel (hydroxypropylcellulose) (HPC)
# [6] = dose: 6.25 mg/kg/injection, schedule: Q01DX009 (ip), vehicle: saline
# [7] = dose: 12.5 mg/kg/injection, schedule: Q01DX009 (ip), vehicle: saline
# [8] = dose: 25.0 mg/kg/injection, schedule: Q01DX009 (ip), vehicle: saline
# [9] = dose: 50.0 mg/kg/injection, schedule: Q01DX009 (ip), vehicle: saline
# [10] = dose: 100.0 mg/kg/injection, schedule: Q01DX009 (ip), vehicle: saline
# [11] = dose: 60.0 mg/kg/injection, schedule: Q01DX005 (ip), vehicle: saline with Tween-80
# [12] = dose: 120.0 mg/kg/injection, schedule: Q01DX005 (ip), vehicle: saline with Tween-80
# [13] = dose: 240.0 mg/kg/injection, schedule: Q01DX005 (ip), vehicle: saline with Tween-80
# [14] = dose: 25.0 mg/kg/injection, schedule: Q01DX005 (ip), vehicle: Klucel (hydroxypropylcellulose) (HPC)
# [15] = dose: 50.0 mg/kg/injection, schedule: Q01DX009 (ip), vehicle: Klucel (hydroxypropylcellulose) (HPC)
# [16] = dose: 100.0 mg/kg/injection, schedule: Q01DX009 (ip), vehicle: Klucel (hydroxypropylcellulose) (HPC)
# [17] = dose: 200.0 mg/kg/injection, schedule: Q01DX009 (ip), vehicle: Klucel (hydroxypropylcellulose) (HPC)
# [18] = dose: 50.0 mg/kg/injection, schedule: Q01DX009 (ip), vehicle: saline with Tween-80
# [19] = dose: 100.0 mg/kg/injection, schedule: Q01DX009 (ip), vehicle: saline with Tween-80
# [20] = dose: 200.0 mg/kg/injection, schedule: Q01DX009 (ip), vehicle: saline with Tween-80
# [21] = dose: 25.0 mg/kg/injection, schedule: Q01DX009 (ip), vehicle: saline with Tween-80
compound,measurement,setting,value
Cc1cc(=O)c2c3c(ccc2[nH]1)Oc1ccccc1O3,T/C,[1],101 % of control
same,T/C,[2],101 % of control
same,T/C,"dose: 200.0 mg/kg/injection, schedule: Q01DX005 (ip), vehicle: saline with Tween-80",100 % of control
O=C(Nc1ccccc1C(=O)OCCCl)NN1CCCCCC1,T/C,[3],107 % of control
same,T/C,[4],100 % of control
same,T/C,[5],98 % of control
CC(=O)SC12CCCN1C(=O)C1(SC(C)=O)CCCN1C2=O (stereo not given),T/C,[6],98 % of control
same,T/C,[7],104 % of control
same,T/C,[8],104 % of control
same,T/C,[9],103 % of control
same,T/C,[10],111 % of control
CCOC1(C(C)O)CC(c2ccccc2)=NO1 (stereo not given),T/C,[11],108 % of control
same,T/C,[12],101 % of control
same,T/C,[13],100 % of control
Cc1cc(C)n(-c2ccc(S(=O)(=O)N3CC(=O)N(c4ccccc4)C3=S)cc2)n1,T/C,[1],95 % of control
same,T/C,[2],93 % of control
CCCC[N+]1([O-])CCOCC1,T/C,[9],104 % of control
same,T/C,[10],100 % of control
same,T/C,"dose: 200.0 mg/kg/injection, schedule: Q01DX009 (ip), vehicle: saline",107 % of control
O=S1(=O)CS(=O)(=O)OCCCCCO1,T/C,"dose: 6.25 mg/kg/injection, schedule: Q01DX005 (ip), vehicle: Klucel (hydroxypropylcellulose) (HPC)",161 % of control
same,T/C,"dose: 12.5 mg/kg/injection, schedule: Q01DX005 (ip), vehicle: Klucel (hydroxypropylcellulose) (HPC)",211 % of control and 213 % of control
same,T/C,[14],255 % of control and 288 % of control
same,T/C,[3],165 % of control and 288 % of control
CN1C(=O)C2CCCN2C(=O)C1(C)NC(=O)OCc1ccccc1 (stereo not given),T/C,"dose: 3.12 mg/kg/injection, schedule: Q04DX003 (ip), vehicle: saline",107 % of control and 98 % of control
same,T/C,"dose: 6.25 mg/kg/injection, schedule: Q04DX003 (ip), vehicle: saline",105 % of control and 98 % of control
same,T/C,"dose: 12.5 mg/kg/injection, schedule: Q04DX003 (ip), vehicle: saline",102 % of control and 105 % of control
same,T/C,"dose: 25.0 mg/kg/injection, schedule: Q04DX003 (ip), vehicle: saline",99 % of control and 107 % of control
same,T/C,"dose: 25.0 mg/kg/injection, schedule: Q04DX003 (ip), vehicle: suspension in saline",100 % of control
O=C1CS/C(=N\C(=O)Nc2ccc(Cl)c(Cl)c2)N1,T/C,[6],91 % of control
same,T/C,[7],100 % of control
same,T/C,[8],94 % of control
same,T/C,"dose: 50.0 mg/kg/injection, schedule: Q01DX009 (ip), vehicle: saline + alcohol",88 % of control
same,T/C,"dose: 100.0 mg/kg/injection, schedule: Q01DX009 (ip), vehicle: saline + alcohol",91 % of control
same,T/C,"dose: 200.0 mg/kg/injection, schedule: Q01DX009 (ip), vehicle: saline + alcohol",88 % of control
CC1(C)Nc2cccc3cccc(c23)N1,T/C,[3],108 % of control
same,T/C,[4],86 % of control
CCC(C)c1ccc(S(=O)(=O)Nc2cc(Cl)c([N+](=O)[O-])cc2O)cc1 (stereo not given),T/C,[15],104 % of control
same,T/C,[16],100 % of control
same,T/C,[17],102 % of control
CN1c2ccccc2SC12C(=O)N(c1ccccc1)C(=O)N2c1ccccc1 (stereo not given),T/C,[18],103 % of control
same,T/C,[19],100 % of control
same,T/C,[20],103 % of control
COc1ccc(C[n+]2ccc3ccccc3c2C#N)cc1OC,T/C,"dose: 12.5 mg/kg/injection, schedule: Q04DX002 (ip), vehicle: saline",111 % of control
same,T/C,"dose: 25.0 mg/kg/injection, schedule: Q04DX002 (ip), vehicle: saline",109 % of control
CN(C)N=Nc1ccc(S(N)(=O)=O)cc1,T/C,"dose: 25.0 mg/kg/injection, schedule: Q01DX009 (ip), vehicle: Klucel (hydroxypropylcellulose) (HPC)",93 % of control
same,T/C,[15],114 % of control
same,T/C,[16],100 % of control
O=C1Nc2ccccc2/C1=N/N=C/c1ccccc1Cl,T/C,[15],99 % of control and 88 % of control
same,T/C,[16],86 % of control and 97 % of control
same,T/C,[17],96 % of control
COc1cccc2c1-c1nc(N)c3c(OC)cccc3c1C2=O,T/C,"dose: 100.0 mg/kg/injection, schedule: Q04DX002 (ip), vehicle: Klucel (hydroxypropylcellulose) (HPC)",106 % of control
same,T/C,"dose: 200.0 mg/kg/injection, schedule: Q04DX002 (ip), vehicle: Klucel (hydroxypropylcellulose) (HPC)",108 % of control
same,T/C,"dose: 400.0 mg/kg/injection, schedule: Q04DX002 (ip), vehicle: Klucel (hydroxypropylcellulose) (HPC)",107 % of control
O=C(CBr)Nc1c(Cl)cc(Br)cc1Br,T/C,[6],113 % of control
same,T/C,[7],95 % of control
same,T/C,[8],98 % of control
same,T/C,[19],104 % of control
same,T/C,[20],113 % of control
COC(=O)c1ccccc1N=Nc1ccc(N(CCCl)CCCl)cc1,T/C,"dose: 50.0 mg/kg/injection, schedule: Q01DX001 (ip), vehicle: Klucel (hydroxypropylcellulose) (HPC)",112 % of control
same,T/C,"dose: 100.0 mg/kg/injection, schedule: Q01DX001 (ip), vehicle: Klucel (hydroxypropylcellulose) (HPC)",108 % of control
same,T/C,"dose: 200.0 mg/kg/injection, schedule: Q01DX001 (ip), vehicle: Klucel (hydroxypropylcellulose) (HPC)",113 % of control
COC(=O)c1nc(=S)[nH]c(C(=O)OC)c1C(=O)c1ccc(O)cc1O,T/C,[11],99 % of control
same,T/C,[12],98 % of control
CCOC(CNc1cnc(NC(C)=O)[nH]c1=O)OCC,T/C,[21],102 % of control
same,T/C,[18],104 % of control
same,T/C,[19],102 % of control
same,T/C,[20],112 % of control
COC1/C=C\C=C(/C)C(=O)NC2=CC(=O)C=C(C2=O)C(OC)C(C)CC(OC)C(OC)C(C)/C=C(/C)C1OC(N)=O (stereo not given),T/C,"dose: 3.0 mg/kg/injection, schedule: Q01DX009 (ip), vehicle: Klucel (hydroxypropylcellulose) (HPC)",92 % of control
same,T/C,"dose: 6.0 mg/kg/injection, schedule: Q01DX009 (ip), vehicle: Klucel (hydroxypropylcellulose) (HPC)",101 % of control
C/C(=N\N=C(/[Se])N1CCCCCC1)c1ccccn1,T/C,"dose: 25.0 mg/kg/injection, schedule: Q04DX003 (ip), vehicle: Klucel (hydroxypropylcellulose) (HPC)",110 % of control
same,T/C,"dose: 50.0 mg/kg/injection, schedule: Q04DX003 (ip), vehicle: Klucel (hydroxypropylcellulose) (HPC)",118 % of control
same,T/C,"dose: 200.0 mg/kg/injection, schedule: Q04DX003 (ip), vehicle: Klucel (hydroxypropylcellulose) (HPC)",86 % of control
CN(C)c1ccc(/[N+]([O-])=N/N2C(=O)c3ccccc3C2=O)cc1,T/C,[14],105 % of control
same,T/C,[3],97 % of control
same,T/C,[4],101 % of control
same,T/C,[5],110 % of control
CCOC(=O)c1nc2nc3cc(OC)c(OC)cc3cc2c(=O)[nH]1,T/C,[14],93 % of control
same,T/C,[3],87 % of control
same,T/C,[4],86 % of control and 89 % of control
same,T/C,[5],91 % of control
N#CCN(CNC(=O)c1ccccc1)N=O,T/C,"dose: 100.0 mg/kg/injection, schedule: Q04DX002 (ip), vehicle: saline with Tween-80",101 % of control
same,T/C,"dose: 200.0 mg/kg/injection, schedule: Q04DX002 (ip), vehicle: saline with Tween-80",105 % of control
COc1cc(O)c(/C=N\O)c(OC)c1,T/C,[11],96 % of control
same,T/C,[12],98 % of control
same,T/C,[13],98 % of control
CNC(=O)Nc1ccc(C2(C)SCCS2)cc1,T/C,[11],97 % of control
same,T/C,[12],87 % of control
same,T/C,[13],90 % of control
Cn1c(N)nc2c(nc(OCc3ccccc3)n2C2OC(CO)C(O)C2O)c1=O (stereo not given),T/C,[11],100 % of control
same,T/C,[12],94 % of control
same,T/C,[13],103 % of control
O=C(O)CCSCCCCCCCCCCCCSCCC(=O)O,T/C,[3],95 % of control
same,T/C,[4],89 % of control
same,T/C,[5],87 % of control
c1ccc(Cc2nnc3n2CCC(c2ccccc2)S3)cc1 (stereo not given),T/C,[11],102 % of control
same,T/C,[12],99 % of control
same,T/C,[13],95 % of control
CCCNC(=O)CCC(NS(=O)(=O)c1ccc(NC(C)=O)cc1)C(=O)O (stereo not given),T/C,[3],100 % of control
same,T/C,[4],98 % of control
same,T/C,[5],100 % of control
CC(=O)Nc1ccc(C(=O)C(C)Cl)cc1 (stereo not given),T/C,[15],100 % of control and 104 % of control and 105 % of control
same,T/C,[16],105 % of control and 117 % of control and 89 % of control
same,T/C,[17],99 % of control and 117 % of control and 123 % of control
same,T/C,"dose: 400.0 mg/kg/injection, schedule: Q01DX009 (ip), vehicle: Klucel (hydroxypropylcellulose) (HPC)",105 % of control
Cc1ccc(S(=O)(=O)NCCCCCCNS(=O)(=O)c2ccc(C)cc2)cc1,T/C,[3],86 % of control and 90 % of control
same,T/C,[4],89 % of control
same,T/C,[5],86 % of control and 91 % of control
O=C1C=CC(=O)N1c1ccc([N+](=O)[O-])cc1,T/C,"dose: 12.5 mg/kg/injection, schedule: Q01DX009 (ip), vehicle: saline with Tween-80",101 % of control
same,T/C,[21],101 % of control
same,T/C,[18],99 % of control
